Structures are written as SMILES. Entries after “also recorded” stand apart in the source; their conditions may differ.

Type in all cases: cell-based, human
For experiment [1], the system named is WT-LRRK2 expressing HEK293 cells. As to the kind of experiment: Mito DNADX mtDNA damage and mtDNA copy number in WT-LRRK2 overexpressing HEK293 cells. The settings on record: 10 nM-1 μM, 2 h. On the procedure: (§1) Cells were plated at a density of 0.3 × 10^6 cells in a 6-well dish and treated at ~40–50% confluency. At the time of harvest, cells were collected and either protein collected or DNA extracted as described below.
(§2) The tool compound EB-42168 was discovered as part of a small molecule discovery program aimed at identifying LRRK2 kinase inhibitors that are selective for the pathogenic G2019S LRRK2 variant. […] MLi‐2 inhibits WT LRRK2 ~1000‐fold more than EB‐42168[20].
(§3) Cells were collected and the nuclei and mitochondria were isolated as previously described. DNA was extracted from LRRK2-WT and G2019S-LRRK2 cells, and wild-type and LRRK2^G2019S/G2019S KI cells using QuickGene DNA Whole Blood Kit L (Autogen, fk-dbl). PD patient LRRK2 G2019S and healthy subject control-derived LCL DNA was extracted using the QuickGene DNA Tissue Kit L (Autogen, fk-dtl), utilizing a semi-automated system (Autogen, QuickGene-610L). For the Autogen system, the pellet was resuspended in 2 ml of 1X PBS, and the standard manufacturer’s protocol was conducted as if the cell suspension was whole blood. DNA was eluted with EDTA-free buffer, and quality was assessed using a Spectradrop microvolume microplate (Molecular Devices). Double-stranded DNA was quantified using Quant-iT Picogreen dsDNA assay (Thermo Fisher) as previously described.
DNA damage in the mitochondrial genome was measured utilizing Mito DNADX, an assay that we recently developed and described, currently the most robust way of measuring damage in mtDNA[39],[82]. The Mito DNADX assay combines optimized polymerase chain reaction (PCR) parameters using a high-fidelity DNA polymerase and a fluorescent dye that binds to double-stranded DNA that permits the real-time quantification of DNA damage in distinct loci in a 96-well platform. The premise of the Mito DNADX assay involves amplification of a specific mitochondrial PCR fragment in which less PCR product will be amplified when mtDNA damage or lesions block the ability of the DNA polymerase to replicate. As such, mtDNA damage or mtDNA repair intermediates that slow down or impair DNA polymerase progression will be detected. Therefore, equal amounts of sample DNA amplified under identical conditions can be directly compared across conditions to determine the mtDNA lesion frequency. Mitochondrial DNA lesion frequency was performed as previously described. Briefly, 15 ng of DNA was used to amplify long or short amplicons of the mitochondrial genome (as determined by primer sets). The amount of amplification is directly proportional to the number of undamaged DNA templates. Average lesion frequency is calculated as described. […] Each biological DNA sample was analyzed in technical triplicate. […]

In experiment [2] the test system is G2019S-LRRK2 expressing HEK293 cells. Nature of the experiment: Mito DNADX mtDNA damage and mtDNA copy number in G2019S-LRRK2 overexpressing HEK293 cells. The following applies: 10 nM-1 μM, 2 h. On the procedure: as §1, §2, §3
DNA damage in the mitochondrial genome was measured utilizing Mito DNADX, an assay that we recently developed and described, currently the most robust way of measuring damage in mtDNA[39],[82]. The Mito DNADX assay combines optimized polymerase chain reaction (PCR) parameters using a high-fidelity DNA polymerase and a fluorescent dye that binds to double-stranded DNA that permits the real-time quantification of DNA damage in distinct loci in a 96-well platform. The premise of the Mito DNADX assay involves amplification of a specific mitochondrial PCR fragment in which less PCR product will be amplified when mtDNA damage or lesions block the ability of the DNA polymerase to replicate. As such, mtDNA damage or mtDNA repair intermediates that slow down or impair DNA polymerase progression will be detected. Therefore, equal amounts of sample DNA amplified under identical conditions can be directly compared across conditions to determine the mtDNA lesion frequency. Mitochondrial DNA lesion frequency was performed as previously described. Briefly, 15 ng of DNA was used to amplify long or short amplicons of the mitochondrial genome (as determined by primer sets). The amount of amplification is directly proportional to the number of undamaged DNA templates. Average lesion frequency is calculated as described. Results are presented with the values in experimental samples relative to control samples (normalized to 1 lesion per 10 kb). PCR reactions included KAPA Long Range HotStart DNA Polymerase (KAPA Biosystems)[49]. Each biological DNA sample was analyzed in technical triplicate. Limitations of the Mito DNADX assay have been recently discussed.

The subject of experiment [3] is wild-type HEK293 cells. Nature of the experiment: Mito DNADX mtDNA damage and mtDNA copy number in wild-type HEK293 cells. The following applies: 10 nM-1 μM, 2 h. Here is the method: as §1
Following this treatment, “Post-treatment recovery 0 h” samples were collected immediately, or vehicle or MLi-2-containing treatment medium was washed out and replaced with fresh medium and incubated for 2 additional hours and then collected as “Post-treatment recovery 2 h” samples. Isolation, quantitation, and mtDNA damage was performed as described below. […]
Cells were collected and the nuclei and mitochondria were isolated as previously described. […] DNA was eluted with EDTA-free buffer, and quality was assessed using a Spectradrop microvolume microplate (Molecular Devices). Double-stranded DNA was quantified using Quant-iT Picogreen dsDNA assay (Thermo Fisher) as previously described.
DNA damage in the mitochondrial genome was measured utilizing Mito DNADX, an assay that we recently developed and described, currently the most robust way of measuring damage in mtDNA[39],[82]. The Mito DNADX assay combines optimized polymerase chain reaction (PCR) parameters using a high-fidelity DNA polymerase and a fluorescent dye that binds to double-stranded DNA that permits the real-time quantification of DNA damage in distinct loci in a 96-well platform. […]

Experiment [4] relates to wild-type HEK293 cells. Nature of the experiment: Mitophagy (Mtphagy dye / Lyso dye live cell imaging) in wild-type HEK293 cells. The settings on record: 100 nM 2 h pre-treatment; for basal levels of mitophagy: Mitophagy dye intensity or co-localization; for FCCP-stimulated mitophagy: then 20 μM FCCP 3 h. Here is the method:
Thirty-five mm cell culture dishes (Cellvis, D35-20-1.5-N) were coated with poly-D-lysine (Sigma-Aldrich, P7280-5MG) for 5 min, washed with cell culture grade water (Sigma-Aldrich, W3500), and allowed to dry for at least 1 h before plating. LRRK2^G2019S/G2019S KI HEK293 and wild-type cells were passaged as described above and plated at 300,000 cells per well on poly-D-lysine-coated dishes. […] Following this, cells were washed three times with serum-free medium, and a working solution of Mtphagy dye (Dojindo, MD-01) was prepared in serum-free medium according to manufacturer protocols. Cultures were incubated with Mtphagy dye for 30 min, followed by three washes with serum-free medium. Complete medium was used to prepare a 20 µM FCCP (Abcam, ab120081) or DMSO control treatment solution, which was used to treat cells for 3 h. Following treatment, cells were then washed 3 times with serum-free medium, and a working solution of Lyso dye (Dojindo, MD-01) was prepared in serum-free medium and used to treat cells for 30 min. Complete medium lacking phenol red was prepared for use in confocal live cell imaging by combining phenol red-free DMEM/F-12 (Fisher Scientific, 21-041-025), FBS (VWR, 97068-085), and penicillin-streptomycin (VWR, 45000-652). Following Lyso dye treatment, cultures were washed three times with phenol red-free medium, followed by adding fresh phenol red-free medium to cell culture dishes. MitoBright LT Deep Red (Dojindo, MT12-12) was diluted in growth medium to prepare a 0.1 μmol/l solution and was used to treat cells for 15 min for total mitochondrial staining. Live cell imaging (5% CO2, 37 °C) was performed using a Zeiss LSM 880 Confocal Laser Scanning Microscope with Zen Black software. On average, ~70 cells were analyzed for each condition per each experimental replicate.
Following imaging, files were processed using Zen Blue software, and TIFF files of each channel were obtained for analysis. ImageJ was used to obtain readouts for image analysis. All images were converted to 8-bit format. For each respective image, the Lyso dye channel was used to create a mask delineating each lysosomal focus as a region of interest (ROI). Thresholding parameters were adjusted between biological replicates as required to ensure that the Lyso dye ROI encompassed all lysosome foci appropriately, and this was used to create a mask. This was then applied to the corresponding Mtphagy dye channel image, allowing collection of Mtphgy fluorescence intensity readouts for each lysosomal focus. Outliers were removed using Prism software (GraphPad) with the coefficient of removal set to 0.2%. Data was thresholded to exclude lysosomes not containing mitochondria by excluding fluorescence values with intensities equal to or below background levels. The number of ROIs remaining after thresholding was used to quantify lysosomes containing fluorescing mitochondria (mitolysosomes). Fluorescence intensity values for all mitolysosomes per condition per biological replicate were averaged to obtain a value of mitophagy fluorescence intensity per mitolysosome. For each replicate, all values of average mitolysosome fluorescence intensity were normalized to wild-type (vehicle treated) levels for the given replicate.

For the compound `CC1=C(C(=O)Nc2ccc3[nH]nc(-c4ccnc(N5CCOCC5)c4)c3c2)C(C)(C)n2nnnc2N1C` [EB-42168], the figures for the mtDNA copy number result (in experiment [1]; in experiment [2]; with wild-type HEK293 cells [3]) were “not different; also recorded: did not change”, “not different; also recorded: did not change” and “no effect”, respectively. Besides, the mtDNA damage entry was “No effect” in experiment [1], “normalizing damage to WT-LRRK2 control levels (or lower)” in experiment [2] and “abrogated” in experiment [2] (listed as EB-42618). In the experiment on wild-type HEK293 cells [4], the “basal levels of mitophagy” value was “did not impact”. For the same compound, in the experiment on wild-type HEK293 cells [4], the FCCP-stimulated mitophagy entry is “blocked”.
For `C[C@@H]1CN(c2cc(-c3n[nH]c4ccc(OC5(C)CC5)cc34)ncn2)C[C@H](C)O1` [MLi-2, reference compound], in experiment [1], the mtDNA copy number result is “no effect; also recorded: unaltered” and the mtDNA damage entry is “trend toward an increase in mtDNA damage”. In experiment [2], the mtDNA copy number entry is on record as “no effect; also recorded: unaltered” and the mtDNA damage entry is reported as “restored mtDNA damage to WT-LRRK2 control levels”. Also, the mtDNA copy number result in the experiment with wild-type HEK293 cells [3] is reported as “did not change”. Moreover, in the experiment with wild-type HEK293 cells [4], the “basal levels of mitophagy” value was “did not impact” and the FCCP-stimulated mitophagy entry is “blocked”.

The record behind these values is article PMC10907374, “G2019S selective LRRK2 kinase inhibitor abrogates mitochondrial DNA damage” (NPJ Parkinson's Disease, 2024).
